# According to patent US9969699B2, “Cancer cell growth inhibitor, anticancer agent, and method for screening same, as well as novel compound” (Microbial Chemistry Research Foundation, priority 2014, dated 2018):
# Assays:
# [1] = Solubility (remark in acute toxicity test); type: physicochemical
# [2] = test system: NIH3T3/EGFR vIII cells; test: 3D cell culture step (environment without adhesion scaffold), proliferation of NIH3T3/EGFR vIII cells; type: cell-based, mouse
# [3] = test system: KS-1 cells; test: 3D cell culture step, EGFR vIII gene non-expressing brain tumor cells KS-1; type: cell-based; settings: Test Example 3, KS-1 cells
# Protocol: (§1) The following 3 brain tumor cells were used as the EGFR vIII gene non-expressing cells. • U251 cells (available from ATCC) • U87MG cells (available from ATCC) • KS-1 cells (available from ATCC) <3D Cell Culture Step>
# (§2) After the 3 days of culture, the number of viable cells was counted by […]-GLO (trademark) Luminescent Cell Viability Assay (available from Promega), which was a method for quantitating ATP in viable cells. A cell proliferation inhibition rate in the 3D cell culture step was calculated according to (Expression 3) below. Cell proliferation inhibition rate(%)=(1−X/Y)×100 (Expression 3)
# (§3) In the (Expression 3), X denotes the number of viable cells when the test substance was added, and Y denotes the number of viable cells when the test substance was not added.
# [4] = test system: NIH3T3/EGFR vIII cell-transplanted tumor
# [5] = test system: U87MG cells; test: 3D cell culture step, EGFR vIII gene non-expressing brain tumor cells U87MG; type: cell-based; settings: Test Example 3, U87MG cells
# Protocol: as §1, §2, §3
# [6] = Acute toxicity test, tail vein administration; type: in vivo, ICR mice; settings: tail vein once; for Organ weight Heart / Organ weight Kidney (Right) / Organ weight Liver / Organ weight Lung / Organ weight Spleen / Organ weight Thymus / Organ weight Kidney (Left): two weeks after
# Protocol: Two-weeks after the compounds represented by the Structural Formula (1) at the above concentrations were administered to the tail veins, the mice were dissected and organs thereof were weighed.
# [7] = test system: NIH3T3/EGFRWT cells; test: 3D cell culture step, NIH3T3/EGFRWT cells in EGF-including medium; type: cell-based, mouse
# Protocol: as §2, §3
# [8] = test system: U251 cells; test: 3D cell culture step, EGFR vIII gene non-expressing brain tumor cells U251; type: cell-based; settings: Test Example 3, U251 cells
# Protocol: as §1, §2, §3
# [9] = test system: NIH3T3/EGFRWT cell-transplanted tumor
# Text: Note that, “*” denotes t<0.05.
# [10] = test system: NIH3T3 cells; test: 2D cell culture step (environment with adhesion scaffold), proliferation of NIH3T3 cells; type: cell-based; settings: Mus musculus, 72 h; NIH3T3 cells, TC-treated plate, 3 days, […]-GLO; read-out: IC50 2D cell culture step
# Protocol: Note that, as a negative control, the NIH3T3 cells at 2×10^3 cells/100 were seeded to the same plate in a volume of 100 μL per well and cultured at 37° C. in the presence of 5% CO2 for 3 days without the addition of the test substance.
# Note that, Dulbecco's Modified Eagle Medium supplemented with 5% FBS was used for the culture.
# A cell proliferation inhibition rate in the 2D cell culture step was calculated according to (Expression 2) below. Cell proliferation inhibition rate(%)=(1−D/E)×100 (Expression 2)
# In the (Expression 2), D denotes the number of viable NIH3T3 cells when the test substance was added, and E denotes the number of viable NIH3T3 cells when the test substance was not added.
# [11] = test system: mDia; settings: in vitro, reported in NPL 1; cited from earlier work
# [12] = Acute toxicity test, oral administration; type: in vivo, ICR mice; settings: orally once; for Organ weight Heart / Organ weight Kidney (Left) / Organ weight Kidney (Right) / Organ weight Liver / Organ weight Lung / Organ weight Spleen / Organ weight Thymus: two weeks after
# Text: Two-weeks after the compounds represented by the Structural Formula (1) at the above concentrations were orally administered, the mice were dissected and organs thereof were weighed.
# Two-weeks after the compounds represented by the Structural Formula (8) at the above concentrations were orally administered, the mice were dissected and organs thereof were weighed.
# [13] = 30 mg/kg intraperitoneally once a day, day 1 to day 17
structure (smiles),measurement,setting,value
"Nc1ccc(Br)cc1-c1nc2ccccc2[nH]c1=O [Structural Formula (1), 3-(2-amino-5-bromophenyl)-2(1H)-quinoxalinone]",solubility,[1],poor solubility
same,"cell proliferation inhibiting activity compared with AG1478, Gefitinib and Erlotinib",[2]; 3D cell culture step,more significant cell proliferation inhibiting activity
same,IC50,"[2]; Mus musculus, 72 h, NIH3T3/EGFR vIII cells, Ultra Low Attachment plate, 3 days, […]-GLO",0.012 µM
same,inhibiting activity against scaffold-independent proliferation capacity,"[2]; Test Example 3, NIH3T3/EGFR vIII cells",exhibited an inhibiting activity
same,inhibiting activity against scaffold-independent proliferation capacity,[3],did not exhibit an inhibiting activity
same,tumor weight versus negative control group,"[4]; 30 mg/kg intraperitoneally once a day, 17 days after transplantation, t<0.05",significantly different
same,mouse body weight (weight loss),[4]; [13],weight loss was not observed
same,toxicity,[4]; [13],no toxicity
same,tumor proliferation inhibiting activity,[4]; [13],exhibited the tumor proliferation inhibiting activity
same,tumor proliferation inhibiting activity compared with Gefitinib,[4]; 30 mg/kg intraperitoneally vs Gefitinib 100 mg/kg orally,comparable
same,inhibiting activity against scaffold-independent proliferation capacity,[5],did not exhibit an inhibiting activity
same,Organ weight Heart,[6]; 0.39 mg/kg/0.2 mL,121.0 mg
same,Organ weight Kidney (Right),[6]; 0.39 mg/kg/0.2 mL,168.0 mg
same,Organ weight Liver,[6]; 0.39 mg/kg/0.2 mL,1325.0 mg
same,Organ weight Lung,[6]; 0.39 mg/kg/0.2 mL,173.0 mg
same,Organ weight Spleen,[6]; 0.39 mg/kg/0.2 mL,110.0 mg
same,Organ weight Thymus,[6]; 0.39 mg/kg/0.2 mL,83.0 mg
same,Organ weight Heart,[6]; 0.78 mg/kg/0.2 mL,116.0 mg
same,Organ weight Kidney (Left),[6]; 0.78 mg/kg/0.2 mL,165.0 mg
same,Organ weight Kidney (Right),[6]; 0.78 mg/kg/0.2 mL,174.0 mg
same,Organ weight Liver,[6]; 0.78 mg/kg/0.2 mL,1423.0 mg
same,Organ weight Lung,[6]; 0.78 mg/kg/0.2 mL,164.0 mg
same,Organ weight Spleen,[6]; 0.78 mg/kg/0.2 mL,115.0 mg
same,Organ weight Thymus,[6]; 0.78 mg/kg/0.2 mL,112.0 mg
same,Organ weight Heart,[6]; 1.56 mg/kg/0.2 mL,121.0 mg
same,Organ weight Kidney (Left),[6]; 1.56 mg/kg/0.2 mL,170.0 mg
same,Organ weight Kidney (Right),[6]; 1.56 mg/kg/0.2 mL,167.0 mg
same,Organ weight Liver,[6]; 1.56 mg/kg/0.2 mL,1471.0 mg
same,Organ weight Lung,[6]; 1.56 mg/kg/0.2 mL,170.0 mg
same,Organ weight Spleen,[6]; 1.56 mg/kg/0.2 mL,104.0 mg
same,Organ weight Thymus,[6]; 1.56 mg/kg/0.2 mL,56.0 mg
same,toxicity,[6]; observed 2 weeks,no significant toxicity
same,inhibition of proliferation of the NIH3T3/EGFRWT cells,"[7]; 3D cell culture step, EGF 50 ng/mL in medium",inhibited proliferation
same,inhibiting activity against scaffold-independent proliferation capacity,"[7]; Test Example 3, NIH3T3/EGFRWT cells, EGF-including medium",exhibited an inhibiting activity
same,inhibiting activity against scaffold-independent proliferation capacity,[8],did not exhibit an inhibiting activity
same,tumor proliferation inhibiting activity,[9]; [13],exhibited the tumor proliferation inhibiting activity
same,tumor proliferation inhibiting activity compared with Gefitinib,[9]; 30 mg/kg intraperitoneally vs Gefitinib 200 mg/kg orally,comparable
same,IC50,[10],> 10 µM
same,inhibition of mDia-mediated actin assembly,[11],inhibit mDia-mediated actin assembly in vitro
same,Organ weight Heart,[12]; 0.098 mg/kg/0.2 mL,124.0 mg
same,Organ weight Kidney (Left),[12]; 0.098 mg/kg/0.2 mL,183.0 mg
same,Organ weight Kidney (Right),[12]; 0.098 mg/kg/0.2 mL,191.0 mg
same,Organ weight Liver,[12]; 0.098 mg/kg/0.2 mL,1524.0 mg
same,Organ weight Lung,[12]; 0.098 mg/kg/0.2 mL,163.0 mg
same,Organ weight Spleen,[12]; 0.098 mg/kg/0.2 mL,132.0 mg
same,Organ weight Heart,[12]; 6.25 mg/kg/0.2 mL,122.0 mg
same,Organ weight Lung,[12]; 6.25 mg/kg/0.2 mL,169.0 mg
same,Organ weight Thymus,[12]; 6.25 mg/kg/0.2 mL,112.0 mg
same,Organ weight Heart,[12]; 12.5 mg/kg/0.2 mL,143.0 mg
same,Organ weight Kidney (Left),[12]; 12.5 mg/kg/0.2 mL,177.0 mg
same,Organ weight Kidney (Right),[12]; 12.5 mg/kg/0.2 mL,177.0 mg
same,Organ weight Liver,[12]; 12.5 mg/kg/0.2 mL,1327.0 mg
same,Organ weight Lung,[12]; 12.5 mg/kg/0.2 mL,191.0 mg
same,Organ weight Spleen,[12]; 12.5 mg/kg/0.2 mL,173.0 mg
same,Organ weight Thymus,[12]; 12.5 mg/kg/0.2 mL,99.0 mg
same,Organ weight Heart,[12]; 25 mg/kg/0.2 mL,116.0 mg
same,Organ weight Kidney (Left),[12]; 25 mg/kg/0.2 mL,157.0 mg
same,Organ weight Kidney (Right),[12]; 25 mg/kg/0.2 mL,169.0 mg
same,Organ weight Liver,[12]; 25 mg/kg/0.2 mL,1290.0 mg
same,Organ weight Lung,[12]; 25 mg/kg/0.2 mL,176.0 mg
same,Organ weight Spleen,[12]; 25 mg/kg/0.2 mL,100.0 mg
same,Organ weight Thymus,[12]; 25 mg/kg/0.2 mL,87.0 mg
same,Organ weight Heart,[12]; 50 mg/kg/0.4 mL,115.0 mg
same,Organ weight Kidney (Left),[12]; 50 mg/kg/0.4 mL,150.0 mg
same,Organ weight Kidney (Right),[12]; 50 mg/kg/0.4 mL,155.0 mg
same,Organ weight Liver,[12]; 50 mg/kg/0.4 mL,1403.0 mg
same,Organ weight Lung,[12]; 50 mg/kg/0.4 mL,166.0 mg
same,Organ weight Spleen,[12]; 50 mg/kg/0.4 mL,117.0 mg
same,Organ weight Thymus,[12]; 50 mg/kg/0.4 mL,95.0 mg
same,toxicity,"[12]; 0.098 to 50 mg/kg, observed 2 weeks",no significant toxicity
